Experimental data from US6545182B2, “Methods and compositions for modulating alpha adrenergic receptor activity” (Allergan Sales, Inc., priority 2000, dated 2003).

Columns and labels:
Assay type in all cases: cell-based
[1] = target: T1, alpha 2C adrenergic receptor (Homo sapiens, UniProt P18825); assay: RSAT (Receptor Selection and Amplification Technology) assay, alpha 2C; conditions: for EC50: NIH-3T3 cells cotransfected with receptor and Gq/i5; for efficacy or intrinsic activity (value in parentheses) Alpha 2C: ratio of maximal effect to that of standard full agonist brimonidine
T1 construct: expressed in transfected cells; host or cells: NIH-3T3 cells, transient cotransfection by calcium phosphate
T1 sequence (P18825 1-462): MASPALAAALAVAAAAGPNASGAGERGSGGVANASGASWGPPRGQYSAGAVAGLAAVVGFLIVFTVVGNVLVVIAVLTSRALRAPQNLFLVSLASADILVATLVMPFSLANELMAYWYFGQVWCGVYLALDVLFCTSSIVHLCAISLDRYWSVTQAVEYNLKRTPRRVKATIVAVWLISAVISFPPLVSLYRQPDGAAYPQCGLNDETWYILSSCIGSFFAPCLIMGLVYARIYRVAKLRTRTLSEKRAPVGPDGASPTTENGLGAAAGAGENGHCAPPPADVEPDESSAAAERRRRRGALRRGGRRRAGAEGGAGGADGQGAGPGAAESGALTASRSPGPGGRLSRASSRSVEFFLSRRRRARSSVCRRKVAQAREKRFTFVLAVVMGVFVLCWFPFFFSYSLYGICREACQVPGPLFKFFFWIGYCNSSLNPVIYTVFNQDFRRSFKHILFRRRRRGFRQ
Description: (§1) Activity was measured using the RSAT (Receptor Selection and Amplification Technology) assay, developed by Receptor Technologies, Inc. of Winooski, Vt. (now Acadia Pharmaceuticals of San Diego, Calif.), adapted for use with recombinant alpha2 adrenergic receptors in collaboration with Allergan. The assay measures receptor-mediated loss of contact inhibition that results in selective proliferation of receptor-containing cells in a mixed population of confluent cells. The increase in cell number is assessed with an appropriate transfected marker gene such as β-galactosidase, the activity of which can be easily measured in a 96-well format. Receptors that activate the G protein, Gq, elicit this response. Alpha2 receptors, which normally couple to Gi, activate the RSAT response when coexpressed with a hybrid Gq protein that has a Gi receptor recognition domain, called Gq/i5.
(§2) The assay is conducted as follows. NIH-3T3 cells are plated at a density of 2×10^6 cells in 15 cm dishes and maintained in Dulbecco's modified Eagle's medium supplemented with 10% calf serum. One day later, cells are cotransfected by calcium phosphate precipitation with mammalian expression plasmids encoding p-SV-β-galactosidase (5-10 μg), receptor (1-2 μg) and G protein (1-2 μg). 40 μg salmon sperm DNA may also be included in the transfection mixture to increase transfection efficiency. Fresh media is added on the following day and 1-2 days later, cells are harvested and frozen in 50 assay aliquots. Transfectant cells are thawed and 100 μl added to 100 μl aliquots of various concentrations of drugs in triplicate in 96-well dishes. Incubations continue 72-96 hr at 37°. After washing with phosphate-buffered saline, β-galactosidase enzyme activity is determined by adding 200 μl of the chromogenic substrate (consisting of 3.5 mM o-nitrophenyl-β-D-galactopyranoside and 0.5% of the non-ionic surfactant nonidet P-40 in phosphate buffered saline), incubating overnight at 30° and measuring optical density at 420 nm. The absorbency is a measure of enzyme activity, which depends on cell number and reflects a receptor-mediated cell proliferation. The EC50 and maximal effect of each drug at each alpha2 receptor is determined. The efficacy or intrinsic activity is calculated as a ratio of the maximal effect of the drug to the maximal effect of a standard full agonist for each receptor subtype. Brimonidine, also called UK14304, is used as the standard agonist for the alpha2A, alpha2B and alpha2C receptors. The RSAT assay is also discussed in Messier et al. (1995) High throughput assays of cloned adrenergic, muscarinic, neurokinin and neurotrophin receptors in living mammalian cells, Pharmacol. Toxicol. 76:308-11; see also Conklin et al. (1993) Substitution of three amino acids switches receptor specificity of Gqα to that of Giα, Nature 363:274-6; Both of these papers are incorporated by reference herein.

[2] = target: T2, alpha 2A adrenergic receptor (Homo sapiens, UniProt P08913); assay: RSAT (Receptor Selection and Amplification Technology) assay, alpha 2A; conditions: for EC50: NIH-3T3 cells cotransfected with receptor and Gq/i5; for efficacy or intrinsic activity (value in parentheses) Alpha 2A: ratio of maximal effect to that of standard full agonist brimonidine
T2 construct: expressed in transfected cells; host or cells: NIH-3T3 cells, transient cotransfection by calcium phosphate
T2 sequence (P08913 1-465): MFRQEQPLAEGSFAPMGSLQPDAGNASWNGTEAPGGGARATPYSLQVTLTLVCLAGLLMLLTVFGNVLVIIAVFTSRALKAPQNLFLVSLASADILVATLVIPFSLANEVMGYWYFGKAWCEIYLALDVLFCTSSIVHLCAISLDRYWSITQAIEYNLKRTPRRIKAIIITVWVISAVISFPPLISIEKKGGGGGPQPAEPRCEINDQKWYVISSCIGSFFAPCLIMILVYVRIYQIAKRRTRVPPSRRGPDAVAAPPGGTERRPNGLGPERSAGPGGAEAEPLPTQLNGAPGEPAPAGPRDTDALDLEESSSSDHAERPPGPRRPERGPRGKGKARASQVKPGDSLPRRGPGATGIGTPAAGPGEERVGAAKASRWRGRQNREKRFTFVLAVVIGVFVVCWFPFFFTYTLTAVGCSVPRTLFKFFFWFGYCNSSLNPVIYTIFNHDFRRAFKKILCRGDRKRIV
Description: as §1, §2

[3] = target: T3, alpha 2B adrenergic receptor (Homo sapiens, UniProt P18089); assay: RSAT (Receptor Selection and Amplification Technology) assay, alpha 2B; conditions: for EC50: NIH-3T3 cells cotransfected with receptor and Gq/i5; for efficacy or intrinsic activity (value in parentheses) Alpha 2B: ratio of maximal effect to that of standard full agonist brimonidine
T3 construct: expressed in transfected cells; host or cells: NIH-3T3 cells, transient cotransfection by calcium phosphate
T3 sequence (P18089 1-450): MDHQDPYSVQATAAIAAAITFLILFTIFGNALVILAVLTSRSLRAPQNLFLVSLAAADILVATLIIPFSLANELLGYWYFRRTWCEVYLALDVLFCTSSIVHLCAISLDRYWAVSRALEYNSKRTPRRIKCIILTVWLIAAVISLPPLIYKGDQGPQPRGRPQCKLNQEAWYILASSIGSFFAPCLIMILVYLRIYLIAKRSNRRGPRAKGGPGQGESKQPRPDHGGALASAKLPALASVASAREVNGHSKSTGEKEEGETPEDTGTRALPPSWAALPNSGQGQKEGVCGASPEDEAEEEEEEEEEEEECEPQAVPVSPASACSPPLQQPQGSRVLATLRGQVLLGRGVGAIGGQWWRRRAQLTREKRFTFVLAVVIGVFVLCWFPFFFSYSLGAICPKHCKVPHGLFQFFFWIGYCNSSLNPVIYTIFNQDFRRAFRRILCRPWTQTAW
Description: as §1, §2

SMILES	EC50 [1]	efficacy or intrinsic activity (value in parentheses) Alpha 2C [1]	EC50 [2]	EC50 [3]	efficacy or intrinsic activity (value in parentheses) Alpha 2B [3]	efficacy or intrinsic activity (value in parentheses) Alpha 2A [2]
OCCNC(=S)NCc1c(F)cccc1F	5060 nM	0.4	≥ 210000 nM	462 nM	0.45	–
OCCNC(=S)NCc1ccccc1C(F)(F)F	783 nM	0.4	≥ 210000 nM	694 nM	0.93	–
COc1ccc(F)c(CNC(=S)NCCO)c1	–	–	≥ 210000 nM	282 nM	0.91	–
Cc1ccc(F)c(CNC(=S)NCCO)c1	–	–	≥ 210000 nM	95 nM	0.91	–
OCCNC(=S)NCc1c(F)ccc(Br)c1F	–	–	≥ 210000 nM	205 nM	0.81	–
OCCNC(=S)NCc1cc(Br)ccc1Cl	–	–	≥ 210000 nM	50 nM	0.78	–
OCCNC(=S)NCc1cc(Cl)ccc1Br	–	–	≥ 210000 nM	25 nM	0.82	–
OCCNC(=S)NCc1cc(F)c(F)cc1F	–	–	≥ 210000 nM	271 nM	0.48	–
OCCNC(=S)NCc1cccc(C(F)(F)F)c1Cl	–	–	≥ 210000 nM	33 nM	1.1	–
OCCNC(=S)NCc1cc(Cl)cc(Cl)c1F	–	–	≥ 210000 nM	118 nM	0.92	–
Cc1ccc(Br)c(F)c1CNC(=S)NCCO	> 2000 nM	–	≥ 210000 nM	181 nM	0.95	–
OCCNC(=S)NCc1cc(Cl)ccc1F	87 nM	0.6	≥ 210000 nM	17 nM	1.13	–
OCCNC(=S)NCc1c(F)ccc(F)c1Cl	1850 nM	0.54	≥ 210000 nM	44 nM	0.94	–
OCCNC(=S)NCc1ccccc1I	226 nM	0.7	≥ 210000 nM	21 nM	1.26	–
OCCNC(=S)NCc1cccc(I)c1	232 nM	0.58	63 nM	30 nM	1.16	0.42
OCCNC(=S)NCc1cc(F)ccc1F	53 nM	0.51	≥ 210000 nM	13 nM	0.85	–

SMILES	EC50 [1]	efficacy or intrinsic activity (value in parentheses) Alpha 2C [1]	EC50 [2]	EC50 [3]	efficacy or intrinsic activity (value in parentheses) Alpha 2B [3]	efficacy or intrinsic activity (value in parentheses) Alpha 2A [2]
OCCNC(=S)NCc1c(F)c(F)c(F)c(F)c1F	≥ 210000 nM	–	≥ 210000 nM	2360 nM	0.73	–
OCCNC(=S)NCc1ccc(F)cc1C(F)(F)F	> 2000 nM	–	≥ 210000 nM	478 nM	0.72	–
COc1cccc(F)c1CNC(=S)NCCO	406 nM	0.43	≥ 210000 nM	235 nM	0.92	–
COc1ccc(F)cc1CNC(=S)NCCO	45 nM	0.78	930 nM	9 nM	0.96	0.39
OCCNC(=S)NCc1c(F)cccc1C(F)(F)F	617 nM	0.37	≥ 210000 nM	137 nM	0.68	–
OCCNC(=S)NCc1c(F)ccc(Cl)c1Cl	238 nM	0.34	≥ 210000 nM	30 nM	0.75	–
OCCNC(=S)NCc1cc(C(F)(F)F)ccc1F	853 nM	0.7	≥ 210000 nM	523 nM	0.8	–
Cc1cc(Cl)c(F)c(CNC(=S)NCCO)c1	278 nM	0.66	546 nM	62 nM	1.06	0.31
OCCNC(=S)NCc1c(Cl)ccc(Cl)c1F	1420 nM	0.78	≥ 210000 nM	89 nM	0.92	–
OCCNC(=S)NCc1c(F)c(F)cc(F)c1F	2370 nM	0.51	≥ 210000 nM	243 nM	0.9	–
OCCNC(=S)NCc1cc(F)ccc1O	144 nM	0.74	≥ 210000 nM	27 nM	1.20	–
OCCNC(=S)NCc1c(F)cc(F)c(F)c1F	≥ 210000 nM	–	≥ 210000 nM	2050 nM	0.89	–
OCCNC(=S)NCc1c(F)cccc1I	> 2000 nM	–	≥ 210000 nM	141 nM	1.08	–
OCCNC(=S)NCc1cccc(I)c1F	23 nM	0.91	62 nM	2 nM	1.35	0.85
OCCNC(=S)NCc1cc(I)ccc1F	322 nM	0.68	≥ 210000 nM	49 nM	0.76	–
